Converted amounts (≈) assume the structure as drawn. Like-named read-outs stand apart in the source and are kept apart here.
Legend:
[1] = system: Staphylococcus aureus strain UAMS-1; experiment: Antimicrobial susceptibility testing (MIC, broth microdilution); format: cell-based; settings: Staphylococcus aureus, UAMS1, 18 h, S. aureus UAMS-1, Mueller Hinton broth, 37° C., read-out: MIC
Method: The RNase P inhibitors described herein were tested for antimicrobial activity toward Staphylococcus aureus strain UAMS-1. Individual wells of a 96-well microtiter plate were inoculated with ˜1×10^5 colony-forming units (CFU) of the indicated organism, containing two-fold increasing concentrations (from 0 to 256 μg mL^−1) of the indicated antibiotic or putative RnpA inhibitor, and incubated at 37° C. for 18 hours in Mueller Hinton broth. The MIC was defined as the lowest concentration of antibiotic in which there was no visible bacterial growth in the wells. Minimum bactericidal concentration testing was performed by enumerating the bacterial cells in each of the wells containing treatments at and above the MIC.

[2] = molecular target: T1, S. aureus RNase P (RnpA+rnpB) (Staphylococcus aureus, UniProt P0A0H5); experiment: RNase P activity assay (precursor tRNA processing); format: biochemical; settings: ptRNATyr processing, gel densitometry; read-out: RNase P IC50
T1 sequence (P0A0H5 1-117): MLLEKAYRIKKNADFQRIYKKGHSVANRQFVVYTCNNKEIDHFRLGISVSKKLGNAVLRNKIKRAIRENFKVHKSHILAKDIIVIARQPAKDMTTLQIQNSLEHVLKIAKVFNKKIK
Method: The RNase P inhibitors described herein were tested for activity toward RNase P. S. aureus RNase P activity assays were performed in low salt buffer (50 mM Tris-HCl pH 8.0, 5 mM MgCl2) or in high salt buffer (50 mM Tris-HCl pH 8.0, 100 mM MgCl2, 800 mM NH4Cl). For all reactions, ptRNATyr, tRNATyr, or rnpB RNA species were first denatured by heating to 95° C. for 3 minutes, and then slowly cooling the mixtures to room temperature. RNase P was reconstituted by mixing an equal molar ratio of RnpB and RnpA for 15 min at 37° C. Precursor tRNA processing reactions (20 μL) were performed by mixing 1.25 pmol RNase P (RnpA+rnpB), RnpA, or rnpB with an equal volume of 2× low salt buffer or 2× high salt buffer and 10 pmol ptRNATyr. Mixtures were incubated for 15 min at 37° C. Reactions were stopped by adding 20 μL 2×RNA loading dye (95% formamide, 0.025% SDS, 0.025% bromophenol blue, 0.025% xylene cyanol FF, 0.5 mM EDTA), and 30 μL of each sample was electrophoresed in a 7 M urea/8% polyacrylamide gel and was then stained with ethidium bromide (0.5 μg/ml). Where indicated, reactions were repeated in the presence of the indicated amount of putative RnpA inhibitors or dimethyl sulfoxide (DMSO). A FluorChem 5500 imaging system was used to visualize the RNA, and the relative abundance of the mature tRNATyr band in the positive control (RNase P+DMSO) or in samples containing test compounds was measured using Image J densitometry software (NIH). The percent RNase P activity was then calculated using the following calculation: (test compound tRNATyr signal/positive control tRNATyr signal)*100.

RnpA = molecular target: T2, RnpA (Staphylococcus aureus, UniProt P0A0H5); experiment: RnpA mRNA degradation activity assay; format: biochemical
T2 sequence (P0A0H5 1-117): T1 sequence (P0A0H5 1-117)
Method: The RNase P inhibitors described herein were tested for activity toward RnpA mRNA degradation activity. Either 1 μg of total S. aureus RNA or 1 pmol of in vitro synthesized spa mRNA was incubated with 20 pmol RnpA at 37° C. for 15 to 30 min in a reaction buffer (50 mM Tris-HCl pH 8.0, 2 mM NaCl, 2 mM MgCl2) in the absence or presence of the indicated compound. Reactions were stopped by adding an equal volume of 2×RNA loading dye (95% formamide, 0.025% SDS, 0.025% bromophenol blue, 0.025% xylene cyanol FF, 0.5 mM EDTA), run on a denaturing 1.0% agarose-0.66 M formaldehyde gel and stained with ethidium bromide. RNA substrates and corresponding degradation products were visualized using a FluorChem 5500 system (Alpha Innotech; San Leandro, Calif.). The inhibitory effects of the test compounds were measured using Image J densitometry software (National Institutes of Health; Bethesda, Md.) to quantify the signal intensity of the RNA band(s) in the negative control (RNA alone), positive control (RnpA+RNA+DMSO), and experimental samples (RnpA+RNA+test compound). The percent enzyme inhibition of test compounds was calculated using the following equation: Percent inhibition=[(experimental signal-positive control)/(negative control signal-positive control signal)]*100.

S. aureus strain UAMS-1 = experiment: Fractional Inhibitory Concentration testing with mupirocin; format: cell-based; settings: combined with mupirocin, S. aureus UAMS-1, Mueller Hinton broth, 18 hours; synergistic FIC≤0.5
Method: The RNase P inhibitors described herein were tested for Fractional Inhibitory Concentration (FIC) in the presence of mupirocin. FIC testing was performed to determine the combined effects of mupirocin and the RnpA inhibitors as described herein. Individual wells of a 96-well microtiter plate were inoculated with 1×10^5 CFU of S. aureus strain UAMS-1 in a Mueller Hinton broth. Each row of the plate contained increasing concentrations of RNPA1000 or RNPA2000 (two-fold increments; 0, 0.004, 0.008, 0.016, 0.03, 0.06, 0.125, 0.25, 0.5, 1, 2, or 4×MIC), whereas each column contained increasing concentrations of the indicated antibiotic (two-fold increments; 0, 0.06, 0.125, 0.25, 0.5, 1, 2, or 4×MIC). Plates were incubated for 18 hours at 37° C., and growth was detected by the unaided eye. The FIC was determined using the following formula: (MIC of Drug A in Combination/MIC of Drug A Alone)+(MIC of Drug B in Combination/MIC of Drug B Alone)=FIC. A synergistic interaction was defined as an FIC value≤0.5, no interaction as an FIC of 0.5-4, or an antagonistic interaction FIC>4.

[3] = RnpA mRNA degradation, gel densitometry, read-out: RnpA IC50

| Structure (SMILES) | MIC [1] | IC50 [2] | IC50 (RnpA; [3]) | FIC with Mupirocin (S. aureus strain UAMS-1) | IC50 (RnpA) |
| --- | --- | --- | --- | --- | --- |
| CC(C)c1ccc(OCC(=O)NNC(=S)NC(=O)c2cccs2)cc1 [MC-190029] | 128 µg/mL (≈ 339 µM) | 380 µM | > 500 µM | 0.5 |  |
| CC(C)c1ccc(OCC(=O)NNC(=S)NC(=O)c2ccsc2)cc1 [MC-190030] | 64 µg/mL (≈ 170 µM) | 395 µM |  | 0.375 | > 500 µM |
| CC(C)c1ccc(OCC(=O)NNC(=S)NC(=O)c2cc3ccccc3o2)cc1 [MC-190031] | 32 µg/mL (≈ 77.8 µM) | 1 µM | 60 µM | 0.25 |  |
| COc1ccccc1C(=O)NNC(=O)COc1ccc(C(C)C)cc1 [MC-190032] | > 128 µg/mL | 75 µM | > 500 µM | 0.75 |  |
| COc1ccccc1C(=O)NC(=S)NNC(=O)COc1ccc(C(C)C)cc1 [MC-190033] | 128 µg/mL (≈ 319 µM) | > 500 µM | 250 µM | 0.3125 |  |
| Cc1ccoc1C(=O)NNC(=O)COc1ccc(C(C)C)cc1 [MC-190040] | > 256 µg/mL | 230 µM | 480 µM | 0.625 |  |
| Cc1ccc(C(=O)NC(=S)NNC(=O)COc2ccc(C(C)C)cc2)o1 [MC-190044] | 32 µg/mL (≈ 85.2 µM) | 105 µM | 30 µM | 0.49 |  |
| CC(C)c1ccc(OCC(=O)NNC(=S)NC(=O)/C=C/c2ccco2)cc1 [MC-190045] | 64 µg/mL (≈ 165 µM) | 32 µM | 100 µM | 0.625 |  |
| CC(C)c1ccc(OCC(=O)NNC(=S)NC(=O)c2ccc(Br)o2)cc1 [MC-190046] | 32 µg/mL (≈ 72.7 µM) | 140 µM | 30 µM | 0.3125 |  |
| CC(C)c1ccc(OCC(=O)NNC(=S)NC(=O)/C=C/c2cc3ccccc3o2)cc1 [MC-190047] | 64 µg/mL (≈ 146 µM) | 26 µM | 30 µM | 0.625 |  |
| CC(C)c1ccc(OCC(=O)NNC(=O)/C=C/c2cc3ccccc3o2)cc1 [MC-190048] | > 256 µg/mL | < 50 µM | < 50 µM | 0.5625 |  |
| CC(C)c1ccc(OCC(=O)NNC(=S)NC(=O)c2cccnc2)cc1 [MC-190049] | 64 µg/mL (≈ 172 µM) | 160 µM |  | 1 | > 500 µM |
| CC(C)c1ccc(OCC(=O)NNC(=S)NC(=O)c2nc3ccccc3[nH]2)cc1 [MC-190052] | 128 µg/mL (≈ 311 µM) | 90 µM | 150 µM | 0.56 |  |
| CC(C)c1ccc(OCC(=O)NNC(=S)NC(=O)c2ccccn2)cc1 [MC-190053] | 32 µg/mL (≈ 85.9 µM) | 1 µM | 100 µM | 0.49 |  |
| CC(C)c1ccc(OCC(=O)NNC(=S)NC(=O)c2cc3ccccc3[nH]2)cc1 [MC-190054] | 16 µg/mL (≈ 39 µM) | < 0.5 µM | 50 µM | 0.49 |  |
| CC(C)c1ccc(OCC(=O)NNC(=S)NC(=O)c2c[nH]c3ccccc23)cc1 [MC-190055] | 32 µg/mL (≈ 78 µM) | 90 µM | 40 µM | 0.56 |  |
| COc1ccc2[nH]c(C(=O)NC(=S)NNC(=O)COc3ccc(C(C)C)cc3)cc2c1 [MC-190060] | 32 µg/mL (≈ 72.6 µM) | < 50 µM | 50 µM | 0.49 |  |
| CC(C)c1ccc(OCC(=O)NNC(=S)NC(=O)c2cc3cc(Cl)ccc3[nH]2)cc1 [MC-190064] | 256 µg/mL (≈ 575 µM) | 100 µM |  | 0.53 | > 500 µM |
| CC(C)c1ccc(OCC(=O)NNC(=S)NC(=O)c2cc3ccc(Cl)cc3[nH]2)cc1 [MC-190066] | 16 µg/mL (≈ 36 µM) | < 50 µM | 250 µM | 0.75 |  |
| CCOc1ccccc1C(=O)NNC(=S)NC(=O)c1ccco1 [MC-190067] | 8 to 16 µg/mL (≈ 24 to 48 µM) | > 500 µM | > 500 µM | 0.625 |  |
| O=C(NC(=S)NNC(=O)C1C[C@H]1c1ccccc1)c1ccco1 (stereo partly shown) [MC-190068] | 32 µg/mL (≈ 97.2 µM) | 370 µM | > 500 µM | 0.5 |  |
| CCOc1ccc(OCC(=O)NNC(=S)NC(=O)c2ccco2)cc1 [MC-190071] | 256 µg/mL (≈ 704 µM) | > 500 µM | > 500 µM | 0.375 |  |
| CC(C)c1ccc(OCC(=O)NNC(=S)NC(=O)c2cc3ccccc3s2)cc1 [MC-220001] | > 256 µg/mL | 100 µM | 50 µM | 0.56 |  |
| Cc1ccccc1OCC(=O)NNC(=S)NC(=O)c1ccco1 [ST5522690] | 16 µg/mL (≈ 48 µM) | > 500 µM | > 500 µM | 1 |  |
| Cc1cc(OCC(=O)NNC(=S)NC(=O)c2ccc(Br)o2)ccc1Cl [ST5522821] | 16 µg/mL (≈ 35.8 µM) | 220 µM | 35 µM | 0.75 |  |
